Test results taken from paper PMC13181001 (Communications Medicine, 2026).
Where two headings read alike, the source gives them in different places.

Legend:
[1] = system: 255 kinases; experiment: Kinome-wide selectivity, Off-chip Mobility Shift Assay; type: biochemical; conditions: 20 nmol/L
Protocol: However, the potential secondary effects of the pharmacological inhibition of these eight kinases, with IC50 values below that of the wild-type EGFR, remain to be elucidated.
Supplementary Fig 3. […] The […]
plasmon resonance (SPR) analysis with single-cycle kinetics. KD values were calculated via curve fitting with 1:1 binding model or steady-state affinity evaluation. Mean KD values and standard deviation (s.d.) obtained from three independent experiments are shown.
Supplementary Fig 4. Kinome-wide selectivity of TAS3351. […]
determination of the IC50 values. […]

[2] = system: EGFR harboring L718Q and L718V; experiment: Inhibitory spectrum against other osimertinib-resistant mutations (author rebuttal); conditions: data not shown
[3] = biological target: human recombinant EGFR L858R/T790M (Homo sapiens, UniProt P00533, L858R/T790M); experiment: EGFR biochemical kinetics assay (PhosphoSens Kinase Assay), Ki
[4] = Body weight evaluation in allograft and xenograft mouse models; type: in vivo; conditions: once-daily oral administration; NIH/3T3-EGFR allograft models (Fig. 5a–d)
Protocol: The tumor volumes were calculated using the following equation: Tumor Volume (mm^3) = 0.5 × major axis (mm) × minor axis (mm) × minor axis (mm). […] Tukey’s test (SAS with EXSUS) was used to evaluate statistical significance (p ≥ 0.05) on the logarithmically transformed mean tumor volume in each allocated group on Days 0 or 1, and no statistical significance was confirmed before initiating the experiments. During the experiments, the mice in each labeled cage were identified by the position of the cut on their pinnae. The test compounds were administered orally at a dose of 10 mL/kg. The tumor volume and body weight of each mouse were measured once every 2–5 days. The application of the humane endpoints was determined primarily based on tumor volume, body weight change, and systemic physical condition. For Pharmacodynamics Marker (PD) analysis, the mice were randomized into groups based on tumor volume when the average tumor volume reached approximately 400–600 mm^3, following the previously described procedure, including the identification of individual mice. […] Tumor samples were excised and placed in homogenate tubes, frozen in liquid nitrogen, and stored in an ultra-low temperature freezer set at −80 °C until use.
Based on the predefined humane endpoint criteria for this study, †each animal in vehicle control and
under anesthesia on day 8. […]

[5] = biological target: human recombinant EGFR L858R (Homo sapiens, UniProt P00533, L858R); experiment: EGFR biochemical kinetics assay (PhosphoSens Kinase Assay), Ki
[6] = system: A-431 (wild-type) xenograft; type: in vivo, mouse; conditions: at least at doses below 50 mg/kg; once-daily oral
Protocol: The tumor volumes were calculated using the following equation: Tumor Volume (mm^3) = 0.5 × major axis (mm) × minor axis (mm) × minor axis (mm). […] Tukey’s test (SAS with EXSUS) was used to evaluate statistical significance (p ≥ 0.05) on the logarithmically transformed mean tumor volume in each allocated group on Days 0 or 1, and no statistical significance was confirmed before initiating the experiments. During the experiments, the mice in each labeled cage were identified by the position of the cut on their pinnae. The test compounds were administered orally at a dose of 10 mL/kg. The tumor volume and body weight of each mouse were measured once every 2–5 days. The application of the humane endpoints was determined primarily based on tumor volume, body weight change, and systemic physical condition. […]
The statistical analyses were performed with SAS (SAS Institute Inc., ver. 9.4) in an EXSUS (EPS Corporation, ver. 10.0.3) environment. In the studies of subcutaneous tumor-transplant mouse models, the difference in mean tumor volume between each treated group and the control group was analyzed using Dunnett’s test. In the study of intracranial tumor transplanted mouse models, the difference of the mean logarithmically transformed total flux of each treated group with that of the control group was evaluated with Dunnett’s test.

[7] = system: Ba/F3 cell EGFR (ex19del); experiment: Ba/F3-EGFR cell viability assay (CellTiter-Glo); type: cell-based, murine; conditions: Mus musculus, BaF3, Mean
Protocol: (§1) Human full-length EGFR harboring a particular mutation or wild-type EGFR was cloned into the PB-CMV-MCS-EF1-RFP-T2A-Puro PiggyBac vector (System Biosciences) to construct the EGFR PiggyBac vector plasmids. Each EGFR PiggyBac plasmid was simultaneously transfected into Ba/F3 cells with Super PiggyBac Transposase Expression Vector (System Biosciences) using a Nucleofector (Lonza). Afterward, the cells were treated with puromycin to select the cells which were stably integrated EGFR.
(§2) In Ba/F3-EGFR (wild-type) cells, hEGF (FUJIFILM Wako Pure Chemical Corporation) was added at a final concentration of 50 ng/mL. […] The cells were treated with appropriately diluted test compounds in DMSO and incubated for 3 days. Cell viability was analyzed using CellTiter-Glo 2.0 (Promega), according to the manufacturer’s protocol. The IC50 values were calculated by nonlinear regression analysis using XLfit.

[8] = system: pEGFR, pAkt, pErk1/2 in NCI-H1975 xenograft tumors; experiment: Pharmacodynamic marker analysis (immunoblotting) in NCI-H1975 xenograft tumors; type: in vivo, mouse; conditions: for phosphorylation of EGFR, Akt, and Erk1/2 in tumor: 24 h
Protocol: Frozen tumor samples were homogenized in cold RIPA buffer (Thermo Fisher Scientific) supplemented with PhosSTOP (Merck KGaA) and cOmplete, Mini, EDTA-free Protease Inhibitor Cocktail (Merck KGaA) using Multi-beads Shocker (Yasui Kikai Corporation). The tumor protein extracts obtained via centrifugation of the supernatants were stored on ice until the assay. The protein concentration of the extracts was determined using BCA Protein Assay (Thermo Fisher Scientific), according to the manufacturer’s protocol. The protein concentration of the extracts was adjusted to 1 mg/mL using RIPA buffer and Lane Marker Reducing Sample Buffer (Thermo Fisher Scientific) to prepare SDS-PAGE samples; afterward, the samples were denatured by heating at 98 °C for 5 min. After cooling to room temperature, the extracts and samples were frozen until SDS-PAGE analysis. 5 μg/lane of each SDS-PAGE sample was subjected to SDS-PAGE analysis using 7.5% polyacrylamide gels (Bio-Rad Laboratories) and transferred to polyvinylidene difluoride (PVDF) membranes using a Trans-Blot Turbo Transfer System (Bio-Rad Laboratories). Membranes were blocked with the PVDF Blocking Reagent for Can Get Signal (TOYOBO). After blotting with primary antibodies, the membranes were incubated with horseradish peroxidase (HRP)-conjugated secondary antibodies. The antibodies were diluted in Can Get Signal Solution1/2 (TOYOBO) according to the manufacturer’s protocol. […] All antibodies were diluted to a concentration of 1:1000.

[9] = system: P-gp and BCRP in Caco-2 cells
[10] = system: NIH/3T3-EGFR (ex19del/T790M/C797S)-luc cells; experiment: Intracranial tumor transplanted mouse allograft model; type: in vivo; conditions: 20 and 40 mg/kg; with statistical significance
Protocol: Male nude mice (BALB/cAJcl-nu/nu, 6 weeks old, microbiological grade: Specific pathogen free, CLEA Japan) were each head-fixed under anesthesia with a stereotaxic apparatus, and 2 μL of the cell suspension was injected at 0.5 mm anterior, 2.0 mm right, and 3.5 mm deep from the bregma, whereby 1.0 × 10^4 cells per mouse were transplanted. The mice were anesthetized with an intraperitoneal injection of the MMB mixed agent, a saline with 0.075 mg/mL medetomidine hydrochloride (Nippon Zenyaku Kogyo CO., Ltd.), 0.4 mg/mL midazolam (Fuji Pharma Co., Ltd.), and 0.5 mg/mL butorphanol tartrate (Meiji Seika Pharma Co., Ltd.), at a volume of 10 mL/kg body weight. Propeto (Maruishi Pharmaceutical Co., Ltd.) was applied to the eyeballs to prevent drying during the transplantation. The day of cell transplantation was defined as day 0. 150 mg/kg Luciferin (Promega Corporation) was intraperitoneally administered to measure the level of luminescence (photons/s) using an IVIS Lumina II Imaging System (PerkinElmer) on days 8, 13, and 19. Mice were anesthetized with isoflurane and placed in the prone position in the IVIS Lumina II Imaging System chamber. […] The total flux in the region of interest of the head was calculated using Living Image software (version 3.2.0.7800). […] The application of the humane endpoints was determined primarily based on body weight change, behavior, and systemic physical condition. […]

[11] = biological target: human recombinant EGFR Ex19del/T790M (Homo sapiens, UniProt P00533, DEL746-750/T790M); experiment: EGFR biochemical kinetics assay (PhosphoSens Kinase Assay), Ki
[12] = biological target: human recombinant EGFR Ex19del (Homo sapiens, UniProt P00533, DEL746-750); experiment: as above
[13] = biological target: human recombinant EGFR Ex19del/T790M/C797S (Homo sapiens, UniProt P00533, C797S/DEL746-750/T790M); experiment: as above
[14] = system: Ba/F3 cell EGFR (L858R/T790M/C797S); experiment: Ba/F3-EGFR cell viability assay (CellTiter-Glo); type: cell-based, murine; conditions: Mus musculus, BaF3, Mean
Protocol: as §1, §2

[15] = Assessment of brain penetrability in mice (plasma and brain PK); type: in vivo; conditions: BALB/cAJcl-nu/nu, mouse; for AUC(0-t): plasma, male nude mice, read-out: AUC0-24 hr Plasma; for Kp uu / Kp: male, oral; for Kp uu: brain, unbound brain AUC / unbound plasma AUC; for Kp: brain AUC0-24 hr / plasma AUC0-24 hr
Protocol: Prior to the study, the animal use protocol was reviewed and approved by the Institutional Animal Care and Use Committee in Sekisui Medical Co., Ltd., and the study was conducted in accordance with the regulations and guidelines of animal experiments specified by the Testing Facility in Sekisui Medical Co., Ltd. On the day of administration, the mice were assigned to groups by the stratification body weight average method. […] After centrifugation of the blood samples, the collected plasma samples were stored in an ultra-low-temperature freezer until the analysis. At the same time, the brain samples also collected, weighed, and mixed with PBS at ratio of 1:3 (w/v). After adding zirconia beads to the container, the brain samples were homogenized with Shake Master Auto (Biomedical Science) for 3 min to prepare the brain homogenate. The homogenate samples were stored in an ultra-low-temperature freezer until the analysis. […] The areas under the concentration-time curve from 0 to 24 h (AUC0-24 hr) of plasma and brain were calculated from mean concentration values using Phoenix WinNonlin 8.1 (Certara). Kp,brain was determined by dividing the total brain AUC0-24 hr by the total plasma AUC0-24 hr. Kp,uu,brain was determined by dividing the unbound brain AUC0-24 hr by the unbound plasma AUC0-24 hr, and the unbound AUC0-24 hr was determined by multiplying the total AUC0-24 hr by the respective tissue unbound fraction.

[16] = biological target: recombinant wild-type and mutated EGFR; experiment: Off-chip mobility shift assay (MSA) at ATP concentrations near Km; type: biochemical, human; conditions: ATP concentrations near the Km values for ATP in each recombinant EGFR
Protocol: The reaction mixtures and test compounds dissolved in dimethylsulfoxide (DMSO) were mixed and incubated for 1 hour at room temperature. The reaction was terminated by adding the Termination Buffer of QuickScout Screening Assist MSA (Carna Biosciences). The reaction mixture was applied to a LabChip system (PerkinElmer), and the product (P) and substrate (S) peptide peaks were separated and quantified. The kinase reaction was evaluated by calculating the product ratio from the peak heights of the P and S peptides (P/(P + S)). […] IC50 values were calculated from the concentration vs %inhibition curves by fitting to a four-parameter logistic curve using Microsoft Excel 2013 with the Solver add-in software.
Supplementary Fig 1. Chemical structure of EGFR-TKIs in the series of pyrrolopyrimidine-quinoline chemical core structure. The chemical structures of TAS3351 (a), TAS3351 analog, […]
the pyrrolopyrimidine-quinoline chemical core structure. Red-highlighted parts of the chemical structures indicate the pyrrolopyrimidine-quinoline. […]
inhibition was measured via Off-chip Mobility Shift Assay (MSA) using recombinant wild-type and mutated EGFR in the ATP concentration relevant to Km values of each human recombinant EGFR. ATP concentrations in the assay in each recombinant EGFR are as follows: wild type, ex19del/T790M, and […]
indicate standard deviation (s.d.) from triplicates. […]

## C#Cc1c(-c2cnc3ccccc3c2)c2c(N)ncnc2n1C12CCC(NC(=O)c3cnc(C)cn3)(CC1)C2 [TAS3351]
[1]
  number of kinases whose enzymatic activity was inhibited by over 50%: 26
[2]
  efficacy against EGFR harboring L718Q and L718V: not effective
[3]
  Ki: 0.224 nM
[4]
  body weight: without apparent body weight loss
[5]
  Ki: 0.259 nM
[5]; L858R vs ex19del
  difference in the Ki values between ex19del and L858R mutations: over 50 fold
[6]
  inhibition of xenograft growth: did not demonstrate statistically significant inhibition of xenograft growth
[7]
  IC50: 2.84 nM
[8]; 40 mg/kg single oral
  phosphorylation of EGFR, Akt, and Erk1/2 in tumor: restored to nearly baseline
[8]; 80 mg/kg single oral
  phosphorylation of EGFR, Akt, and Erk1/2 in tumor: partially inhibited
[8]; 40 and 80 mg/kg single oral, 1–8 h post-administration
  phosphorylation of EGFR, Akt, and Erk1/2 in tumor vs control: significantly reduced
[9]
  P-gp or BCRP substrate: not a P-gp or BCRP substrate
[10]
  intracranial luciferase activity (total flux) vs vehicle: reduced intracranial luciferase activity
[11]
  Ki: 0.00649 nM
[12]
  Ki: 0.0048 nM
[13]
  Ki: 0.018 nM
[14]
  IC50: 241 nM
[15]; 20 mg/kg single oral
  AUC(0-t): 72.5 µM·h
[15]; 40 mg/kg single oral
  AUC(0-t): 202 µM·h
[15]; 80 mg/kg single oral
  AUC(0-t): 377 µM·h
[15]; 20 mg/kg
  Kp uu: 0.68
  Kp: 0.32
[15]; 40 mg/kg
  Kp uu: 1.08
  Kp: 0.51
[15]; 80 mg/kg
  Kp uu: 1.47
  Kp: 0.69
[16]
  IC50 values: sub-nanomolar range
